According to patent US9346798B2, “Dihydrobenzoxazine and tetrahydroquinoxaline sodium channel inhibitors” (AMGEN INC., priority 2012, dated 2016):

What was measured:
Format in all cases: cell-based
[1] = target: T1, Nav 1.7 (Homo sapiens (Human), UniProt Q15858); assay: Nav 1.7 in vitro assay, IonWorks Quattro (IWQ) population patch-clamp; settings: HEK 293 cells stably transfected with Nav 1.7; 26th pulse to -20 mV
[2] = target: Nav 1.5 (Homo sapiens (Human), UniProt Q14524); assay: Nav 1.5 in vitro assay, IonWorks Quattro (IWQ) population patch-clamp; settings: HEK 293 cells stably transfected with Nav 1.5; 26th pulse to -20 mV
Nav 1.5, sequence (Q14524 whole entry): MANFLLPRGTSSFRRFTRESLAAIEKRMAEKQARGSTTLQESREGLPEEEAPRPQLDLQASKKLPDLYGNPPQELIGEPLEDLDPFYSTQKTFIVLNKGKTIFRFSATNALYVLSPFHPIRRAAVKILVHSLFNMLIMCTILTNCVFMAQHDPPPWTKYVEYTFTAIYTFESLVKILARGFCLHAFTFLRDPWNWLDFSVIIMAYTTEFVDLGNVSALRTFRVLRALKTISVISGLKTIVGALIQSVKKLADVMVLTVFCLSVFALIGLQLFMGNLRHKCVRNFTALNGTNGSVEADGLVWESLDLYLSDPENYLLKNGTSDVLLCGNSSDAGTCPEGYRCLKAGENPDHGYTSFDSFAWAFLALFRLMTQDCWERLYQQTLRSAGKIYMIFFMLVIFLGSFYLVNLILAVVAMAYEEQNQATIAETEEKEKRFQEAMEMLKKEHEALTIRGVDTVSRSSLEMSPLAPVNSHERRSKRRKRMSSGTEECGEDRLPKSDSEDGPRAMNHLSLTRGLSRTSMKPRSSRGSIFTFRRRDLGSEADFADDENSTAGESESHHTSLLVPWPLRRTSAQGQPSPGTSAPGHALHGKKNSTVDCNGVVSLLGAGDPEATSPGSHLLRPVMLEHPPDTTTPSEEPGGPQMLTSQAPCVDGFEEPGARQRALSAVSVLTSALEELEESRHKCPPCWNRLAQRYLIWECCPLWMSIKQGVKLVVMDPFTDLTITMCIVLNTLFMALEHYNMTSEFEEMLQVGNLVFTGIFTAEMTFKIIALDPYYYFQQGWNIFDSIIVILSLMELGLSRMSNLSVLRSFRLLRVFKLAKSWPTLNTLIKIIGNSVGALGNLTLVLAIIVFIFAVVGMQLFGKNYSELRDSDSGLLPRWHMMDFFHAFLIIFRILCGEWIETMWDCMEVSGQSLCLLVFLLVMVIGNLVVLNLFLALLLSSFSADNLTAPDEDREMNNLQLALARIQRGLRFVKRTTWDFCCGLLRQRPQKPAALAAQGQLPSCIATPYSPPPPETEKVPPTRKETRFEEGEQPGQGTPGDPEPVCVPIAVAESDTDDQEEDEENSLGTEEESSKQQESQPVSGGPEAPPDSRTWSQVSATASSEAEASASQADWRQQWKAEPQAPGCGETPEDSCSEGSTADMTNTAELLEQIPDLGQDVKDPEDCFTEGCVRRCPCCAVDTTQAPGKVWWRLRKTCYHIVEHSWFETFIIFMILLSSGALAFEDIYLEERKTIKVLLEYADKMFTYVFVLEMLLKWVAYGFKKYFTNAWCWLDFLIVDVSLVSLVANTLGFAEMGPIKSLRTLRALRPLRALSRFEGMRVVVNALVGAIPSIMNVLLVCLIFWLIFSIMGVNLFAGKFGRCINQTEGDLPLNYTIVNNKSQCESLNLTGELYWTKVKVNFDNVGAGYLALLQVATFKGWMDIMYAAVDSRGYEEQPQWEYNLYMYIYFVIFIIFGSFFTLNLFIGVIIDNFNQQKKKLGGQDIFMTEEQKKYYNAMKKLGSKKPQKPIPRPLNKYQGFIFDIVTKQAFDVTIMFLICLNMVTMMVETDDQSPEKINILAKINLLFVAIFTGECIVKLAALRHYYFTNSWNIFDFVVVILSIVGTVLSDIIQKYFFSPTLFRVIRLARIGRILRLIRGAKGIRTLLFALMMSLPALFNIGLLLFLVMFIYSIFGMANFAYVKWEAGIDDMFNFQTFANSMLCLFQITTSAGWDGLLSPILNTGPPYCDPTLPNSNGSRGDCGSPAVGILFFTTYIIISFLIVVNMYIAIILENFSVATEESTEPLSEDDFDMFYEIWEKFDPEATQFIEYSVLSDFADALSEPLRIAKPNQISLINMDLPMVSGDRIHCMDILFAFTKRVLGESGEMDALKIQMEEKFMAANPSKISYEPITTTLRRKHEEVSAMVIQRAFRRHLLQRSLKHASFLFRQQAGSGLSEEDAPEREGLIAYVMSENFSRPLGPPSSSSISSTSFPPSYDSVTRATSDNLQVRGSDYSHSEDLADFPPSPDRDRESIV

[3] = target: T1, Nav 1.7; assay: Nav 1.7 in vitro PX assay, PatchXpress whole cell voltage clamp; settings: HEK 293 cells stably transfected with human Nav1.7; for IC50: partially inactivated state (20 to 50% inactivation)
Summary of the method: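 Partially inactivated channels (20–50% inactivation at holding potential) were probed on automated patch clamp in stably transfected HEK293 cells, stepping to −10 mV for 20 msec every 10 s (0.1 Hz).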

T1 sequence (Q15858 whole entry): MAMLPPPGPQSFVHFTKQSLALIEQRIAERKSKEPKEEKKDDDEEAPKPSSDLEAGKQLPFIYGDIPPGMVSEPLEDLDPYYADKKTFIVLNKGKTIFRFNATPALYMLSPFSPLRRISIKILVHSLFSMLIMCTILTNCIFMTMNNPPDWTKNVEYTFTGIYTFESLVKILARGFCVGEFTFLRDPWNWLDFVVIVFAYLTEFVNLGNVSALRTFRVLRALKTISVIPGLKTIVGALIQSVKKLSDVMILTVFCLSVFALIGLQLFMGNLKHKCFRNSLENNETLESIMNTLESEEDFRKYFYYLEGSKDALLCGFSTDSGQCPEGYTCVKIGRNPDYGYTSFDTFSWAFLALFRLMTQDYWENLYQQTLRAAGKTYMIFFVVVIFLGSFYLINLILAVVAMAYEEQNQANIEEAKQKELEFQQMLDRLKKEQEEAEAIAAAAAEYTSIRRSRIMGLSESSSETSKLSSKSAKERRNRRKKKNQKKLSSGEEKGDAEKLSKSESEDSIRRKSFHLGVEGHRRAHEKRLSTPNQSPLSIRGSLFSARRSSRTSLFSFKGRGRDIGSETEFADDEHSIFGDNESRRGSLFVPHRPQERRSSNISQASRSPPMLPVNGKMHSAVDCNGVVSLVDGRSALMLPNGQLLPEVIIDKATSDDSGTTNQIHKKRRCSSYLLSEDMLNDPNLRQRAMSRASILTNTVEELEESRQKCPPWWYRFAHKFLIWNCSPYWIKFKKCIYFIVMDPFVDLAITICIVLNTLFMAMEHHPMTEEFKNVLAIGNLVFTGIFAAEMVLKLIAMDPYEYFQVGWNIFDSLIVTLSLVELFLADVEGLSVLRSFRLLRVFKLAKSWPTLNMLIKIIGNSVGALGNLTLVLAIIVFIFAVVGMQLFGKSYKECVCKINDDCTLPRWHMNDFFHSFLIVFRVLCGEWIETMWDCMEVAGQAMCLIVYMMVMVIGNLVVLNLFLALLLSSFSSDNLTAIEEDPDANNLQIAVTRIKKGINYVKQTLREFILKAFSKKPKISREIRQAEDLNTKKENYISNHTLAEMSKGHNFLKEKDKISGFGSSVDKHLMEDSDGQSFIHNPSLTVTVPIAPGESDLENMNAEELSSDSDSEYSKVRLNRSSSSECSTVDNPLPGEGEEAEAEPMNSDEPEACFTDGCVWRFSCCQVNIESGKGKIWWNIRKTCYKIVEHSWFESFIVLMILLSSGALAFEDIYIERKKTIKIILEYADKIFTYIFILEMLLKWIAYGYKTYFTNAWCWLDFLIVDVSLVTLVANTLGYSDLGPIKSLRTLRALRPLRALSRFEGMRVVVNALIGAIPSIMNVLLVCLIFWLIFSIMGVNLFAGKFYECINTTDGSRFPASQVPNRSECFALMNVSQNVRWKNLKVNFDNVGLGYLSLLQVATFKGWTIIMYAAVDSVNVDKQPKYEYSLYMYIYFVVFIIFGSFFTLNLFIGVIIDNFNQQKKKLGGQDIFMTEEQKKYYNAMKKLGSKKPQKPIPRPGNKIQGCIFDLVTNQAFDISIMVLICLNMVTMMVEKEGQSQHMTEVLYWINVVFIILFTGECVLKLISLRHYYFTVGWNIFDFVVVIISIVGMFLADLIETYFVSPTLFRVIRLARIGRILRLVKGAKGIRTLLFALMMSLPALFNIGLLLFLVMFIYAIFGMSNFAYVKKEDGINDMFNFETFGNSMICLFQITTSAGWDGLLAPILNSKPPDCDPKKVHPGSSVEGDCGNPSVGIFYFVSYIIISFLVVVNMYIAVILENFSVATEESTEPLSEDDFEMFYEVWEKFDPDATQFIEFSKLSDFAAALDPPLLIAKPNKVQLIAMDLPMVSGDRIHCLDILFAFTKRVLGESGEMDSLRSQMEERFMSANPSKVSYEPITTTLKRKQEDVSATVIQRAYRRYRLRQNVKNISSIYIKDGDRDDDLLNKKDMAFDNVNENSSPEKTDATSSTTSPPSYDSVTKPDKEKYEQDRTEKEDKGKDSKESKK

Compound | IC50 [1] [µM] | IC50 [3] [µM] | inhibition at 4.9 µM ([3]; HEK293, values marked *, 4.9 μM, read-out: Nav 1.7 PX percent inhibition at 4.9 μM) [%] | IC50 [2] [µM]
O=S(=O)(Nc1nccs1)c1ccc2c(c1)OCCN2c1ccc(C(F)(F)F)cc1C[C@H](O)CO (single isomer, unassigned) [Example 208] | 0.0185 | 0.258 |  | 0.896
COc1cc(Cl)ccc1N1CC(C)Oc2cc(S(=O)(=O)Nc3nccs3)ccc21 (racemic) [Example 103, 4-(4-Chloro-2-Methoxyphenyl)-2-Methyl-N-(Thiazol-2-Yl)-3,4-Dihydro-2H-Benzo[B][1,4]Oxazine-7-Sulfonamide] | 0.04 | 0.422 |  | 9.59
Cc1cc(N2CCOc3cc(S(=O)(=O)Nc4nccs4)ccc32)ccc1C#N [Example 116, 4-(4-Cyano-3-methylphenyl)-N-(thiazol-2-yl)-3,4-dihydro-2H-benzo[b][1,4]oxazine-7-sulfonamide] | 0.841 | 4.95 |  | 7.36
N#Cc1ccc(N2CCOc3cc(S(=O)(=O)Nc4nccs4)ccc32)cc1 [Example 76, 4-(4-Cyanophenyl)-N-(Thiazol-2-Yl)-3,4-Dihydro-2H-Benzo[B][1,4]Oxazine-7-Sulfonamide 2,2,2-Trifluoroacetate] | 0.871 | 9.23 |  | 6.03
O=S(=O)(Nc1ncns1)c1ccc2c(c1)OCCN2c1ccc(C(F)(F)F)cc1C1=CCOCC1 [Example 25, 4-(2-(3,6-Dihydro-2H-Pyran-4-Yl)-4-(Trifluoromethyl)Phenyl)-N-(1,2,4-Thiadiazol-5-Yl)-3,4-Dihydro-2H-Benzo[B][1,4]Oxazine-7-Sulfonamide] | 0.0123 | 0.146 |  | 0.214
O=S(=O)(Nc1cscn1)c1ccc2c(c1)OCCN2c1ccc(C(F)(F)F)cc1Cl [Example 11, 4-(2-Chloro-4-(Trifluoromethyl)Phenyl)-N-(Thiazol-4-Yl)-3,4-Dihydro-2H-Benzo[B][1,4]Oxazine-7-Sulfonamide] | 3.21 | 12.6 |  | > 10
O=S(=O)(Nc1nccs1)c1ccc2c(c1)OCCN2c1ccc(Cl)cc1 [Example 40, 4-(4-Chlorophenyl)-N-(Thiazol-2-Yl)-3,4-Dihydro-2H-Benzo[B][1,4]Oxazine-7-Sulfonamide] | 0.713 | 4.32 |  | > 10
O=S(=O)(Nc1nccs1)c1ccc2c(c1)OCCN2c1ccc(C(F)(F)F)cc1Cl [Example 5, 4-(2-Chloro-4-(Trifluoromethyl)Phenyl)-N-(Thiazol-2-Yl)-3,4-Dihydro-2H-Benzo[B][1,4]Oxazine-7-Sulfonamide] | 0.245 | 0.322 |  | 4.03
O=S(=O)(Nc1ncns1)c1ccc2c(c1)OCC(c1ccccc1)N2c1ccc(C(F)(F)F)cc1 (stereo not drawn) [Example 34, 3-Phenyl-N-(1,2,4-Thiadiazol-5-Yl)-4-(4-(Trifluoromethyl)Phenyl)-3,4-Dihydro-2H-Benzo[B][1,4]Oxazine-7-Sulfonamide] | 2.45 | 3.46 |  | > 10
O=S(=O)(Nc1cccnn1)c1ccc2c(c1)OCCN2c1ccc(C(F)(F)F)cc1Cl [Example 27, 4-(2-Chloro-4-(Trifluoromethyl)Phenyl)-N-(Pyridazin-3-Yl)-3,4-Dihydro-2H-Benzo[B][1,4]Oxazine-7-Sulfonamide] | 1.25 | 10.7 |  | > 10
O=S(=O)(Nc1nccs1)c1ccc2c(c1)OCCN2c1ccccc1C1=CCNCC1 [Example 59, 4-(2-(1,2,3,6-Tetrahydropyridin-4-Yl)Phenyl)-N-(Thiazol-2-Yl)-3,4-Dihydro-2H-Benzo[B][1,4]Oxazine-7-Sulfonamide 2,2,2-Trifluoroacetate] | 0.015 | 0.252 |  | 5.57
COc1cc(C#N)ccc1N1CC(C)Oc2cc(S(=O)(=O)Nc3nccs3)ccc21 (racemic) [Example 106, 4-(4-cyano-2-methoxyphenyl)-2-methyl-N-(thiazol-2-yl)-3,4-dihydro-2H-benzo[b][1,4]oxazine-7-sulfonamide] | 0.0425 | 0.288 |  | > 10
Cc1ccc(F)c(N2CCOc3cc(S(=O)(=O)Nc4nccs4)ccc32)c1 [Example 80, 4-(2-Fluoro-5-Methylphenyl)-N-(Thiazol-2-Yl)-3,4-Dihydro-2H-Benzo[B][1,4]Oxazine-7-Sulfonamide 2,2,2-Trifluoroacetate] | 0.126 | 0.34 |  | 5.64
O=S(=O)(Nc1ccncn1)c1ccc2c(c1)OCCN2c1ccc(C(F)(F)F)cc1Br [Example 47, 4-(2-Bromo-4-(Trifluoromethyl)Phenyl)-N-(Pyrimidin-4-Yl)-3,4-Dihydro-2H-Benzo[B][1,4]Oxazine-7-Sulfonamide] | 0.0145 | 0.303 |  | 7.93

Continued, in another order:

IC50 [1] [µM] | IC50 [3] [µM] | inhibition at 4.9 µM ([3]; HEK293, values marked *, 4.9 μM, read-out: Nav 1.7 PX percent inhibition at 4.9 μM) [%] | Compound | IC50 [2] [µM]
0.0125 | 0.226 |  | O=S(=O)(Nc1nccs1)c1ccc2c(c1)OCCN2c1ccc(Cl)cc1CC(O)CO (stereo not drawn) [Example 210, 4-(4-Chloro-2-(2,3-Dihydroxypropyl)Phenyl)-N-(Thiazol-2-Yl)-3,4-Dihydro-2H-Benzo[B][1,4]Oxazine-7-Sulfonamide] | 6.11
1.01 | 9.07 |  | COc1cnc(N2CCOc3cc(S(=O)(=O)Nc4nccs4)ccc32)c(OC)n1 [Example 143, 4-(3,5-Dimethoxypyrazin-2-yl)-N-(thiazol-2-yl)-3,4-dihydro-2H-benzo[b][1,4]oxazine-7-sulfonamide] | > 10
0.894 | 7.67 |  | COc1cnc(N2CCOc3cc(S(=O)(=O)Nc4nccs4)ccc32)c(OC)c1 [Example 144, 4-(3,5-Dimethoxypyridin-2-yl)-N-(thiazol-2-yl)-3,4-dihydro-2H-benzo[b][1,4]oxazine-7-sulfonamide] | > 10
0.0405 | 0.278 |  | COc1ccc(C(F)(F)F)cc1N1CCOc2cc(S(=O)(=O)Nc3nccs3)ccc21 [Example 114, 4-(2-Methoxy-5-(trifluoromethyl)phenyl)-N-(thiazol-2-yl)-3,4-dihydro-2H-benzo[b][1,4]oxazine-7-sulfonamide] | 5.06
0.571 | 4.04 |  | O=S(=O)(Nc1nccs1)c1ccc2c(c1)OCCN2c1ccc(Cl)c(C(F)(F)F)c1 [Example 125, 4-(4-Chloro-3-(trifluoromethyl)phenyl)-N-(thiazol-2-yl)-3,4-dihydro-2H-benzo[b][1,4]oxazine-7-sulfonamide] | 6.55
0.017 | 0.192 |  | COc1cc(F)ccc1N1CCOc2cc(S(=O)(=O)Nc3nccs3)ccc21 [Example 150, 4-(4-Fluoro-2-methoxyphenyl)-N-(thiazol-2-yl)-3,4-dihydro-2H-benzo[b][1,4]oxazine-7-sulfonamide] | 5.58
0.038 | 0.382 |  | COc1ccccc1N1CCOc2cc(S(=O)(=O)Nc3nccs3)ccc21 [Example 205, 4-(2-methoxyphenyl)-N-(thiazol-2-yl)-3,4-dihydro-2H-benzo[b][1,4]oxazine-7-sulfonamide] | > 10
0.417 | 7.73 |  | N#Cc1c(F)cccc1N1CCOc2cc(S(=O)(=O)Nc3nccs3)ccc21 [Example 187, 4-(2-Cyano-3-Fluorophenyl)-N-(Thiazol-2-Yl)-3,4-Dihydro-2H-Benzo[B][1,4]Oxazine-7-Sulfonamide] | > 10
0.177 | 3.32 |  | O=S(=O)(Nc1nccs1)c1ccc2c(c1)OCCN2c1ccc(C(F)(F)F)cn1 [Example 183, N-(Thiazol-2-Yl)-4-(5-(Trifluoromethyl)Pyridin-2-Yl)-3,4-Dihydro-2H-Benzo[B][1,4]Oxazine-7-Sulfonamide] | > 10
0.0525 | 0.769 |  | N#Cc1ccc(Cl)cc1N1CCOc2cc(S(=O)(=O)Nc3nccs3)ccc21 [Example 192, 4-(5-Chloro-2-Cyanophenyl)-N-(Thiazol-2-Yl)-3,4-Dihydro-2H-Benzo[B][1,4]Oxazine-7-Sulfonamide] | 1.61
0.396 | 0.898 |  | Cc1cc(C(F)(F)F)ccc1N1CCOc2cc(S(=O)(=O)Nc3nccs3)ccc21 [Example 196, 4-(2-Methyl-4-(Trifluoromethyl)Phenyl)-N-(Thiazol-2-Yl)-3,4-Dihydro-2H-Benzo[B][1,4]Oxazine-7-Sulfonamide] | 5.7
0.635 | 5.29 |  | O=S(=O)(Nc1nccs1)c1ccc2c(c1)OCCN2c1cncc(Cl)c1 [Example 130, 4-(5-Chloropyridin-3-yl)-N-(thiazol-2-yl)-3,4-dihydro-2H-benzo[b][1,4]oxazine-7-sulfonamide] | 6.2
2.21 |  | 33.9 | N#Cc1cccc(Cl)c1N1CCOc2cc(S(=O)(=O)Nc3nccs3)ccc21 [Example 142, 4-(2-Chloro-6-cyanophenyl)-N-(thiazol-2-yl)-3,4-dihydro-2H-benzo[b][1,4]oxazine-7-sulfonamide] | > 10
0.564 | 3.03 |  | Cc1onc(-c2ccccc2)c1CN1CCOc2cc(S(=O)(=O)Nc3nccs3)ccc21 [Example 221, 4-((5-Methyl-3-Phenylisoxazol-4-Yl)Methyl)-N-(Thiazol-2-Yl)-3,4-Dihydro-2H-Benzo[B][1,4]Oxazine-7-Sulfonamide] | > 10
0.129 | 0.678 |  | Cc1ccc(Cl)cc1N1CCOc2cc(S(=O)(=O)Nc3nccs3)ccc21 [Example 178, 4-(5-Chloro-2-Methylphenyl)-N-(Thiazol-2-Yl)-3,4-Dihydro-2H-Benzo[B][1,4]Oxazine-7-Sulfonamide 2,2,2-Trifluoroacetate] | 5.6
